Measurements: ChEMBL document CHEMBL5038591, “Identification of a Novel TAR RNA-Binding Protein 2 Modulator with Potential Therapeutic Activity against Hepatocellular Carcinoma” (J Med Chem, 2021)
Calls of active or inactive are those of the source. No cut-off for these calls is given here.

Legend:
SK-HEP1 [1] = experiment: Induction of cell cycle arrest in human SK-HEP1 cells assessed as G1 phase accumulation at 20 uM incubated for 24 hrs by propidium iodide staining based flow cytometry analysis (reference value: 48.61%); assay type: functional
SK-HEP1 [2] = experiment: Antiproliferative activity against human SK-HEP1 cells assessed as increase in miR-106b-5p level at 20 uM by qRT-PCR analysis; assay type: functional, cell-based
SK-HEP1 [3] = experiment: Antiproliferative activity against human SK-HEP1 cells assessed as increase in miR-26a-5p level at 20 uM by qRT-PCR analysis; assay type: functional, cell-based
SK-HEP1 [4] = experiment: Antiproliferative activity against human SK-HEP1 cells assessed as increase in miR-22-5p level at 20 uM by qRT-PCR analysis; assay type: functional, cell-based
SK-HEP1 [5] = experiment: Antiproliferative activity against human SK-HEP1 cells assessed as decrease in miR-30a-5p level at 20 uM by qRT-PCR analysis; assay type: functional, cell-based
SK-HEP1 [6] = experiment: Antiproliferative activity against human SK-HEP1 cells incubated for 24 hrs by alamar blue assay; assay type: functional, cell-based; conditions: SK-HEP1, 24 h
MHCC97 [7] = experiment: Antiproliferative activity against human MHCC97 cells incubated for 24 hrs by alamar blue assay; conditions: MHCC97, 24 h
HepG2 [8] = experiment: Antiproliferative activity against human HepG2 cells incubated for 24 hrs by alamar blue assay; conditions: HepG2, 24 h
Huh-7 = experiment: Antiproliferative activity against human Huh-7 cells incubated for 24 hrs by alamar blue assay; conditions: Huh-7, 24 h
[9] = Antiproliferative activity against human QSG7701 cells incubated for 24 hrs by alamar blue assay; assay type: functional, cell-based; conditions: QSG7701, 24 h
SK-HEP1 [10] = experiment: Inhibition of colony formation in human SK-HEP1 cells at 10 to 50 uM incubated for 14 days by crystal violet staining based assay; assay type: functional, cell-based; conditions: dose 10-50 µM, time 14.0 day
HepG2 [11] = experiment: Inhibition of colony formation in human HepG2 cells at 30 uM incubated for 14 days by crystal violet staining based assay; assay type: functional, cell-based; conditions: time 14.0 day
MHCC97 [12] = experiment: Inhibition of colony formation in human MHCC97H cells at 30 uM incubated for 14 days by crystal violet staining based assay; assay type: functional, cell-based; conditions: time 14.0 day
HeLa = experiment: Inhibition of colony formation in human HeLa cells at 30 uM incubated for 14 days by crystal violet staining based assay; assay type: functional, cell-based; conditions: time 14.0 day
SK-HEP1 [13] = experiment: Induction of cell cycle arrest in human SK-HEP1 cells assessed as S phase accumulation at 20 uM incubated for 24 hrs by propidium iodide staining based flow cytometry analysis (reference value: 26.72%); assay type: functional
SK-HEP1 [14] = experiment: Induction of apoptosis in human SK-HEP1 cells at 30 uM incubated for 24 hrs by Annexin V-FITC/PI staining based flow cytometry; assay type: functional, cell-based
SK-HEP1 [15] = experiment: Inhibition of cell migration in human SK-HEP1 cells at 30 uM incubated for 12 hrs by crystal violet staining based transwell assay; assay type: functional
SK-HEP1 [16] = experiment: Inhibition of epithelial-mesenchymal transition in human SK-HEP1 cells assessed as change in beta-catenin expression at 10 to 50 uM incubated for 24 hrs by Western blot analysis; assay type: functional, cell-based; conditions: dose 10-50 µM
MHCC97 [17] = experiment: Antitumor activity in human MHCC97 cells xenografted in SCID mouse assessed as suppression of tumor growth at 20 mg/kg, ip administered once every 3 day for 30 days by bioluminescence analysis; assay type: functional, organism-based; conditions: time 30.0 day
MHCC97 [18] = experiment: Antimetastatic activity against human MHCC97 cells xenografted in SCID mouse assessed as decrease in liver metastasis at 20 mg/kg, ip administered once every 3 days and measured after 10 days; assay type: functional, organism-based; conditions: time 10.0 day
MHCC97 [19] = experiment: Antimetastatic activity against human MHCC97 cells xenografted in SCID mouse assessed as decrease in liver metastasis at 40 mg/kg, ip administered once every 3 days and measured after 10 days; assay type: functional, organism-based; conditions: time 10.0 day
[20] = Toxicity in SCID mouse xenografted with human MHCC97 cells assessed as increase in body weight at 40 mg/kg, ip administered once every 3 day for 30 days; assay type: organism-based; conditions: in vivo, 720 h, time 30 day
[21] = target: Serine/threonine-protein kinase AKT (Homo sapiens) (UniProt P31751+Q9Y243+P31749); experiment: Inhibition of AKT phosphorylation in human SK-HEP1 cells at 30 uM by Western blot analysis; assay type: cell-based
Sequence of Serine/threonine-protein kinase AKT (Homo sapiens) (P31749 whole entry, looked up): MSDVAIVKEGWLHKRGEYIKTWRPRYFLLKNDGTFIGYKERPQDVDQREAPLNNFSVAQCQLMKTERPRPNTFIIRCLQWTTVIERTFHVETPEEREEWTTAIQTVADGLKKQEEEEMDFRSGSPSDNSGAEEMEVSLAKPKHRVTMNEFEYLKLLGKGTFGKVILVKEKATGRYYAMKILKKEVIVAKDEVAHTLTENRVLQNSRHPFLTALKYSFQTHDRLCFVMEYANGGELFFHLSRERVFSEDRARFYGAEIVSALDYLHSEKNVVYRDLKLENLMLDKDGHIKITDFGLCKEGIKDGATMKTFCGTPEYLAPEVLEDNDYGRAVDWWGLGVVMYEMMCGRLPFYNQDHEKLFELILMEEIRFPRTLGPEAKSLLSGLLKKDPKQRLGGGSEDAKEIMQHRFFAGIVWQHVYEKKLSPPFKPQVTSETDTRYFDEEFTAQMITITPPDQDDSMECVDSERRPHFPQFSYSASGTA
Sequence of Serine/threonine-protein kinase AKT (Homo sapiens) (P31751 whole entry, looked up): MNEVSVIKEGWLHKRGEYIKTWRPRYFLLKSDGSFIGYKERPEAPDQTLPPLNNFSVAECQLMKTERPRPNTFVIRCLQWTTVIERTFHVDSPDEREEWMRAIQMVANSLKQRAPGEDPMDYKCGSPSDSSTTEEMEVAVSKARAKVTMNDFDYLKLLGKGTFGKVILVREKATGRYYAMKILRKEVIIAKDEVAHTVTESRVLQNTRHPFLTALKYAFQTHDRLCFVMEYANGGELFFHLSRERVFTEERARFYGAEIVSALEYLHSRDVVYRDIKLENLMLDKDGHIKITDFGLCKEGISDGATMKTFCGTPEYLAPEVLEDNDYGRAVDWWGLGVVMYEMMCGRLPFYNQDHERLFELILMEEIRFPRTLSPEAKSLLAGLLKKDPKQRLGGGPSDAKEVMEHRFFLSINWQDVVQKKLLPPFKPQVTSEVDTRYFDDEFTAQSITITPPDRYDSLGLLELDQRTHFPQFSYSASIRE
Sequence of Serine/threonine-protein kinase AKT (Homo sapiens) (Q9Y243 whole entry, looked up): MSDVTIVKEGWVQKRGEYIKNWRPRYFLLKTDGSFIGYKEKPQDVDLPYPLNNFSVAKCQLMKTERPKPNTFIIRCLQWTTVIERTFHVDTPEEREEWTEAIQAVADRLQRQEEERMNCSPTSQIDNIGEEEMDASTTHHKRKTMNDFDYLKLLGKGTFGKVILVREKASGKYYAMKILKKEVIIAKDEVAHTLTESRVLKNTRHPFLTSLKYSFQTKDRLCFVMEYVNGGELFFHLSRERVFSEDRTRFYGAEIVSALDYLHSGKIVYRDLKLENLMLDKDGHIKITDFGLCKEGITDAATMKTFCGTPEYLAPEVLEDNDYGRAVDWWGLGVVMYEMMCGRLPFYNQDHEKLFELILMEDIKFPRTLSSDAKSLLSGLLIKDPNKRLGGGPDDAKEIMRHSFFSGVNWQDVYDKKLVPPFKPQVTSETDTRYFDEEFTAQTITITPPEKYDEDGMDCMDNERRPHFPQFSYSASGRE

Mus musculus [22] = experiment: Downregulation of TPX2 expression in mouse liver at 40 mg/kg measured after 30 days by immunohistochemical staining analysis; assay type: functional, organism-based; conditions: time 30.0 day
Mus musculus [23] = experiment: Downregulation of CDC20 expression in mouse liver at 40 mg/kg measured after 30 days by immunohistochemical staining analysis; assay type: functional, organism-based; conditions: time 30.0 day
SK-HEP1 [24] = experiment: Antiproliferative activity against human SK-HEP1 cells knockdown TRBP at 20 uM measured by crystal violet dye based colony formation assay; assay type: functional, cell-based
SK-HEP1 [25] = experiment: Inhibition of cell migration in human SK-HEP1 cells overexpressing TRBP at 20 uM measured after 12 hrs using crystal violet staining inverted microscope based transwell assay; assay type: functional
SK-HEP1 [26] = experiment: Antiproliferative activity against human SK-HEP1 cells assessed as increase in miR-224-5p level at 20 uM by qRT-PCR analysis; assay type: functional, cell-based
SK-HEP1 [27] = experiment: Antiproliferative activity against human SK-HEP1 cells assessed as increase in miR-452-5p level at 20 uM by qRT-PCR analysis; assay type: functional, cell-based
MDA-MB-231 = experiment: Antiproliferative activity against human MDA-MB-231 cells at 25 uM incubated for 24 hrs by alamar blue assay; assay type: functional, cell-based
HCT-116 = experiment: Antiproliferative activity against human HCT-116 cells at 25 uM incubated for 24 hrs by alamar blue assay; assay type: functional, cell-based
MHCC97 [28] = experiment: Antitumor activity against human MHCC97 cells xenografted in SCID mouse assessed as decrease in tumor size at 20 mg/kg, ip administered once every 3 days and measured after 10 days; assay type: functional, organism-based; conditions: time 10.0 day
SK-HEP1 [29] = experiment: Effect on TRBP protein expression in human SK-HEP1 cells at 30 uM after 24 hrs by immunoblot analysis; assay type: functional, cell-based

IC50 (SK-HEP1 [6]): 20.6 µM
IC50 (HepG2 [8]): 27.3 µM
IC50 (Huh-7): 32.2 µM
inhibition [21]: Active
Compound: COc1cc2c(c(O)c1OC)-c1c(cc3c(c1OC)OCO3)C[C@H](C)[C@H](C)C2
Activity (SK-HEP1 [1]): 57.4%
Activity (SK-HEP1 [2]): Active
Activity (SK-HEP1 [3]): Active
Activity (SK-HEP1 [4]): inactive
Activity (SK-HEP1 [5]): inactive
IC50 (MHCC97 [7]): 24.8 µM
IC50 [9]: 53 µM
inhibition (SK-HEP1 [10]): Active
inhibition (HepG2 [11]): Active
inhibition (MHCC97 [12]): Active
inhibition (HeLa): Active
Activity (SK-HEP1 [13]): 22.3%
Activity (SK-HEP1 [14]): inactive
inhibition (SK-HEP1 [15]): Active
inhibition (SK-HEP1 [16]): inactive
Activity (MHCC97 [17]): Active
Activity (MHCC97 [18]): inactive
Activity (MHCC97 [19]): Active
Activity [20]: Toxic
Activity (Mus musculus [22]): Active
Activity (Mus musculus [23]): Active
Activity (SK-HEP1 [24]): inactive
inhibition (SK-HEP1 [25]): Active
Activity (SK-HEP1 [26]): inactive
Activity (SK-HEP1 [27]): inactive
Activity (MDA-MB-231): inactive
Activity (HCT-116): inactive
Activity (MHCC97 [28]): Active
Activity (SK-HEP1 [29]): inactive
